Reference: US20250171776A1, “NON-CANONICAL CELL-PENETRATING PEPTIDES FOR ANTISENSE OLIGOMER DELIVERY” (priority 2023, published 2025)
Where no end group is shown, it is not given here. [ ]: non-standard residue; d: D form. Api = NC1(C(=O)O)CCNCC1; Iph = iodophenylalanine

test system: HELA-654 cells; assay: Hela-654 eGFP assay (incucyte imaging, GFP positive cells, 72 h); format: cell-based; conditions: CXP1 analogs (unnatural amino acids replaced), 72 h, read-out: EC50 (72 h)
Protocol: HELA-654 cells were imaged at 72 hours with an incucyte and the number of GFP positive cells versus total cell counts were calculated with the incucyte image analysis software. Statistical analysis was conducted using a one-way analysis of variance (ANOVA) test with Dunnett's multiple comparison test. Bars represent mean±standard deviation (SD), with P<0.05 was considered to indicate statistical significance, (**** p<0.0001, *** […], ** p<0.01, * p<0.05).
HELA-654 cells were imaged at 72 hours with an incucyte and the number of GFP positive cells versus total cell counts were calculated with the incucyte image analysis software.

EC50	Substance
14.4 µM	Lys-Gln-Lys-Thr-Ser-Iph-Gly-Arg-Gly-Lys-Lys-Trp-Lys-Lys (KQKTS[Iph]GRGKKWKK; also: PMO conjugate) [PMO-CXP1Y]

same assay, conditions: Iph scan, 30 μM of compound, 72 hours

Substance	Percentage of GFP Positive Cells at 72 hours (30 μM)
Lys-Gln-Lys-Thr-Ser-Iph-Gly-Arg-Gly-Iph-Lys-Trp-Lys-Lys (KQKTS[Iph]GRG[Iph]KWKK; also: PMO conjugate) [PMO-CXP1T]	36.5%
Lys-Gln-Lys-Thr-Ser-Iph-Gly-Arg-Gly-Pip-Iph-Trp-Lys-Lys (KQKTS[Iph]GRG[Api][Iph]WKK; also: PMO conjugate) [PMO-CXP1U]	66.4%
Lys-Gln-Lys-Thr-Ser-Iph-Gly-Arg-Gly-Pip-Lys-Trp-Iph-Lys [PMO-CXP1V]	86.4%
Lys-Gln-Lys-Thr-Ser-Iph-Gly-Arg-Gly-Pip-Lys-Trp-Lys-Iph-Lys-Trp-Lys-Lys (KQKTS[Iph]GRG[Api]KWK[Iph]KWKK; not fully specified (C-terminus); printed as Lys-Gln-Lys-Thr-Ser-Iph-Gly-Arg-Gly-Pip-Lys-Trp-Lys-Iph-Lys-Trp-Lys-Lys; also: PMO conjugate) [PMO-CXP1W]	94.11%
Lys-Gln-Lys-Thr-Ser-Iph-Gly-Iph-Gly-Pip-Lys-Trp-Lys-Lys (KQKTS[Iph]G[Iph]G[Api]KWKK; not fully specified (C-terminus); printed as Lys-Gln-Lys-Thr-Ser-Iph-Gly-Iph-Gly-Pip-Lys-Trp-Lys-Lys; also: PMO conjugate) [PMO-CXP1S]	82.3%

same assay, conditions: alanine scan, 20 μM of PPMO, 72 hours

Substance	Percentage of GFP Positive Cells at 72 hours (20 μM)
Lys-Gln-Lys-Thr-Ser-Iph-Gly-Arg-Ala-Pip-Lys-Trp-Lys-Lys (KQKTS[Iph]GRA[Api]KWKK; also: PMO conjugate) [PMO-CXP1J]	53.2%
Lys-Gln-Lys-Thr-Ser-Iph-Gly-Arg-Gly-Ala-Lys-Trp-Lys-Lys (KQKTS[Iph]GRGAKWKK; also: PMO conjugate) [PMO-CXP1K]	39.3%
Lys-Gln-Lys-Thr-Ser-Iph-Gly-Arg-Gly-Pip-Ala-Trp-Lys-Lys (KQKTS[Iph]GRG[Api]AWKK; also: PMO conjugate) [PMO-CXP1L]	41.8%
Lys-Gln-Lys-Thr-Ser-Iph-Gly-Arg-Gly-Pip-Lys-Ala-Lys-Lys (KQKTS[Iph]GRG[Api]KAKK; also: PMO conjugate) [PMO-CXP1M]	51.0%
Lys-Gln-Lys-Thr-Ser-Iph-Gly-Arg-Gly-Pip-Lys-Trp-Ala-Lys (KQKTS[Iph]GRG[Api]KWAK; not fully specified (C-terminus); printed as Lys-Gln-Lys-Thr-Ser-Iph-Gly-Arg-Gly-Pip-Lys-Trp-Ala-Lys; also: PMO conjugate) [PMO-CXP1N]	45.4%
Lys-Gln-Lys-Thr-Ser-Iph-Gly-Arg-Gly-Pip-Lys-Trp-Lys-Ala-Lys-Trp-Lys-Lys (KQKTS[Iph]GRG[Api]KWKAKWKK; not fully specified (C-terminus); printed as Lys-Gln-Lys-Thr-Ser-Iph-Gly-Arg-Gly-Pip-Lys-Trp-Lys-Ala-Lys-Trp-Lys-Lys; also: PMO conjugate) [PMO-CXP1O]	39.2%

same assay, conditions: chimeric peptide PMO conjugates, 72 h, read-out: EC50 (at 72 h)

EC50	Substance
1.07 µM	Lys-Gln-Lys-Thr-Ser-Iph-Gly-Arg-Gly-Pip-Lys-Trp-Lys-Lys-Gly-Lys-Gln-Lys-Thr-Ser-Iph-Gly-Arg-Gly-Pip-Lys-Trp-Lys-Lys (KQKTS[Iph]GRG[Api]KWKKGKQKTS[Iph]GRG[Api]KWKK; not fully specified (C-terminus); printed as Lys-Gln-Lys-Thr-Ser-Iph-Gly-Arg-Gly-Pip-Lys-Trp-Lys-Lys-Gly-Lys-Gln-Lys-Thr-Ser-Iph-Gly-Arg-Gly-Pip-Lys-Trp-Lys-Lys; also: PMO IVS2-654 conjugate) [PMO-CXP1-CXP1]
